According to patent publication US8865756B2, “Inhibitors of HCV NS5A” (Presidio Pharmaceuticals, Inc., priority 2008, dated 2014):
pEC50: −log10 of the molar value.

System: HCV 1b_Huh-Luc/Neo-ET cell line persistently expressing a bicistronic genotype 1b replicon in Huh 7 cells
Assay: HCV replicon assay (luciferase readout)
Assay type: cell-based
Details: Hepatitis C virus, Huh-7, 72 h, read-out: Inhibition of HCV genotype 1b
How it was run: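 EC50, determined repeatedly, comes from a four-parameter logistic fit of luciferase signal as percent of untreated control. Readout follows 72 h compound exposure, in triplicate, of the HCV 1b_Huh-Luc/Neo-ET replicon line.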

Structure (SMILES) | pEC50
COC(=O)N[C@@H](C(=O)N1CCC[C@H]1c1ncc(-c2ccc(C#Cc3ccc(C(=O)NC[C@@H]4CCCN4C(=O)[C@H](NC(=O)N4CCOCC4)c4ccccc4)cc3)cc2)[nH]1)c1ccccc1 [Compound 235] | > 9.00
COC(=O)N[C@@H](C(=O)N1CCC[C@H]1c1ncc(-c2ccc(C#Cc3ccc(C(=O)NC[C@@H]4CCCN4C(=O)[C@H](NC(=O)N4CCN(C)CC4)c4ccccc4)cc3)cc2)[nH]1)c1ccccc1 [Compound 236] | > 9.00
O=C(N[C@@H](C(=O)N1CCC[C@H]1c1ncc(-c2ccc(C#Cc3ccc(-c4cnc([C@@H]5CCCN5C(=O)[C@@H](c5ccccc5)N5CCOCC5)[nH]4)cc3)cc2)[nH]1)c1ccccc1)C1CC1 [Compound 237] | > 9.00
CN1CCN(C(=O)N[C@@H](C(=O)N2CCC[C@H]2c2ncc(-c3ccc(C#Cc4ccc(-c5cnc([C@@H]6CCCN6C(=O)[C@H](NC(=O)C6CC6)c6ccccc6)[nH]5)cc4)cc3)[nH]2)c2ccccc2)CC1 [Compound 238] | > 9.00
COC(=O)N[C@@H](C(=O)N1CCC[C@H]1c1ncc(-c2ccc(C#Cc3ccc(-c4cnc([C@@H]5CCCN5C(=O)[C@H](NC(=O)N5CCN(C)CC5)c5ccccc5)[nH]4)cc3)cc2)[nH]1)c1ccccc1 [Compound 240] | > 9.00
COC(=O)N[C@@H](C(=O)N1CCC[C@H]1c1ncc(-c2ccc(C#Cc3ccc(-c4cnc([C@@H]5CCCN5C(=O)[C@H](NC(=O)N5CCC(O)CC5)c5ccccc5)[nH]4)cc3)cc2)[nH]1)c1ccccc1 [Compound 241] | > 9.00
COC(=O)N[C@@H](C(=O)N1CCC[C@H]1c1ncc(-c2ccc(C#Cc3ccc(-c4cnc([C@@H]5CCCN5C(=O)[C@H](NC(=O)N5CCCCC5)c5ccccc5)[nH]4)cc3)cc2)[nH]1)c1ccccc1 [Compound 242] | > 9.00
COC(=O)N[C@@H](C(=O)N1CCC[C@H]1c1ncc(-c2ccc(C#Cc3ccc(-c4cnc([C@@H]5CCCN5C(=O)[C@H](NC(=O)N5CCCC5)c5ccccc5)[nH]4)cc3)cc2)[nH]1)c1ccccc1 [Compound 243] | > 9.00
CCOC(=O)N[C@@H](C(=O)N1CCC[C@H]1c1ncc(-c2ccc(C#Cc3ccc(-c4cnc([C@@H]5CCCN5C(=O)[C@H](NC(=O)OCC)c5ccccc5)[nH]4)cc3)cc2)[nH]1)c1ccccc1 [Compound 244] | > 9.00
O=C(N[C@@H](C(=O)N1CCC[C@H]1c1ncc(-c2ccc(C#Cc3ccc(-c4cnc([C@@H]5CCCN5C(=O)[C@H](NC(=O)N5CC[C@H](O)C5)c5ccccc5)[nH]4)cc3)cc2)[nH]1)c1ccccc1)N1CC[C@H](O)C1 [Compound 245] | > 9.00
CC(C)(C)OC(=O)N[C@@H](C(=O)N1CCC[C@H]1c1ncc(-c2ccc(C#Cc3ccc(-c4nnc([C@@H]5CCCN5C(=O)[C@H](NC(=O)OC(C)(C)C)c5ccccc5)[nH]4)cc3)cc2)[nH]1)c1ccccc1 [Compound 246] | > 9.00
COC(=O)N[C@@H](C(=O)N1CCC[C@H]1c1ncc(-c2ccc(C#Cc3ccc(-c4nnc([C@@H]5CCCN5C(=O)[C@H](NC(=O)OC)c5ccccc5)[nH]4)cc3)cc2)[nH]1)c1ccccc1 [Compound 247] | > 9.00
O=C(N[C@@H](C(=O)N1CCC[C@H]1c1ncc(-c2ccc(C#Cc3ccc(-c4cnc([C@@H]5CCCN5C(=O)[C@H](NC(=O)N5CCOCC5)c5ccccc5)[nH]4)cc3)cc2)[nH]1)c1ccccc1)N1CCOCC1 [Compound 248] | > 9.00
O=C(N[C@@H](C(=O)N1CCC[C@H]1c1ncc(-c2ccc(C#Cc3ccc(-c4cnc([C@@H]5CCCN5C(=O)[C@H](NC(=O)N5CCCC5)c5ccccc5)[nH]4)cc3)cc2)[nH]1)c1ccccc1)N1CCCC1 [Compound 249] | > 9.00
O=C(N[C@@H](C(=O)N1CCC[C@H]1c1ncc(-c2ccc(C#Cc3ccc(-c4cnc([C@@H]5CCCN5C(=O)[C@H](NC(=O)N5CCCCC5)c5ccccc5)[nH]4)cc3)cc2)[nH]1)c1ccccc1)N1CCCCC1 [Compound 250] | > 9.00
O=C(N[C@@H](C(=O)N1CCC[C@H]1c1ncc(-c2ccc(C#Cc3ccc(-c4cnc([C@@H]5CCCN5C(=O)[C@H](NC(=O)N5CCC(O)CC5)c5ccccc5)[nH]4)cc3)cc2)[nH]1)c1ccccc1)N1CCC(O)CC1 [Compound 251] | > 9.00
O=C(N[C@@H](C(=O)N1CCC[C@H]1c1ncc(-c2ccc(C#Cc3ccc(-c4cnc([C@@H]5CCCN5C(=O)[C@H](NC(=O)N5CC[C@@H](O)C5)c5ccccc5)[nH]4)cc3)cc2)[nH]1)c1ccccc1)N1CC[C@@H](O)C1 [Compound 252] | > 9.00
COC(=O)N[C@@H](C(=O)N1CCC[C@H]1c1ncc(-c2ccc(C#Cc3ccc(-c4cnc([C@@H]5CCCN5C(=O)[C@H](NC(=O)N5CCS(=O)(=O)CC5)c5ccccc5)[nH]4)cc3)cc2)[nH]1)c1ccccc1 [Compound 253] | > 9.00
COC(=O)N[C@@H](C(=O)N1CCC[C@H]1c1ncc(-c2ccc(C#Cc3ccc(-c4cnc([C@@H]5CCCN5C(=O)[C@H](NC(=O)N5CCC[C@@H]5CO)c5ccccc5)[nH]4)cc3)cc2)[nH]1)c1ccccc1 [Compound 254] | > 9.00
COC(=O)N[C@@H](C(=O)N1CCC[C@H]1c1ncc(-c2ccc(C#Cc3ccc(-c4cnc([C@@H]5CCCN5C(=O)[C@H](NC(=O)N5CCC[C@H]5CO)c5ccccc5)[nH]4)cc3)cc2)[nH]1)c1ccccc1 [Compound 255] | > 9.00

Structure (SMILES) | pEC50
COC(=O)N[C@@H](C(=O)N1CCC[C@H]1c1ncc(-c2ccc(C#Cc3ccc(-c4cnc([C@@H]5CCCN5C(=O)[C@H](C)c5ccccc5)[nH]4)cc3)cc2)[nH]1)c1ccccc1 [Compound 256] | > 9.00
COC(=O)N[C@@H](C(=O)N1CCC[C@H]1c1ncc(-c2ccc(C#Cc3ccc(-c4cnc([C@@H]5CCCN5C(=O)C5(c6ccccc6)CC5)[nH]4)cc3)cc2)[nH]1)c1ccccc1 [Compound 257] | > 9.00
CC[C@@H](C(=O)N1CCC[C@H]1c1ncc(-c2ccc(C#Cc3ccc(-c4cnc([C@@H]5CCCN5C(=O)[C@H](NC(=O)OC)c5ccccc5)[nH]4)cc3)cc2)[nH]1)c1ccccc1 [Compound 258] | > 9.00
COC[C@H]1CCCN1C(=O)N[C@@H](C(=O)N1CCC[C@H]1c1ncc(-c2ccc(C#Cc3ccc(-c4cnc([C@@H]5CCCN5C(=O)[C@H](NC(=O)OC)c5ccccc5)[nH]4)cc3)cc2)[nH]1)c1ccccc1 [Compound 259] | > 9.00
COC[C@@H]1CCCN1C(=O)N[C@@H](C(=O)N1CCC[C@H]1c1ncc(-c2ccc(C#Cc3ccc(-c4cnc([C@@H]5CCCN5C(=O)[C@H](NC(=O)OC)c5ccccc5)[nH]4)cc3)cc2)[nH]1)c1ccccc1 [Compound 260] | > 9.00
COC(=O)N[C@@H](C(=O)N1CCC[C@H]1c1ncc(-c2ccc(C#Cc3ccc(-c4cnc([C@@H]5CCCN5C(=O)[C@H](NC(=O)N5CCC[C@@H]5C)c5ccccc5)[nH]4)cc3)cc2)[nH]1)c1ccccc1 [Compound 261] | > 9.00
COC(=O)N[C@@H](C(=O)N1CCC[C@H]1c1ncc(-c2ccc(C#Cc3ccc(-c4cnc([C@@H]5CCCN5C(=O)[C@H](NC(=O)N5CCC[C@H]5C)c5ccccc5)[nH]4)cc3)cc2)[nH]1)c1ccccc1 [Compound 262] | > 9.00
COC(=O)N[C@@H](C(=O)N1CCC[C@H]1c1ncc(-c2ccc(C#Cc3ccc(-c4cnc([C@@H]5CCCN5C(=O)[C@H](NC(=O)N5CCC[C@H](O)C5)c5ccccc5)[nH]4)cc3)cc2)[nH]1)c1ccccc1 [Compound 263] | > 9.00
COC(=O)N[C@@H](C(=O)N1CCC[C@H]1c1ncc(-c2ccc(C#Cc3ccc(-c4cnc([C@@H]5CCCN5C(=O)[C@H](NC(=O)N5CCC[C@@H](O)C5)c5ccccc5)[nH]4)cc3)cc2)[nH]1)c1ccccc1 [Compound 264] | > 9.00
C[C@@H](c1ncc(-c2ccc(C#Cc3ccc(-c4cnc([C@@H]5CCCN5C(=O)[C@H](NC(=O)OC(C)(C)C)c5ccccc5)[nH]4)cc3)cc2)[nH]1)N(C)C(=O)[C@H](NC(=O)OC(C)(C)C)c1ccccc1 [Compound 265] | > 9.00
COC(=O)N[C@H](C(=O)N1CCC[C@H]1c1ncc(-c2ccc(C#Cc3ccc(-c4cnc([C@@H]5CCCN5C(=O)[C@@H](NC(=O)OC)C(C)C)[nH]4)cc3)cc2)[nH]1)C(C)C [Compound 266] | > 9.00
COC(=O)N[C@H](C(=O)N(C)[C@@H](C)c1ncc(-c2ccc(C#Cc3ccc(-c4cnc([C@@H]5CCCN5C(=O)[C@@H](NC(=O)OC)C(C)C)[nH]4)cc3)cc2)[nH]1)C(C)C [Compound 267] | > 9.00
COC(=O)N[C@@H](C(=O)N1CCC[C@H]1c1ncc(-c2ccc(C#Cc3ccc(-c4cnc([C@@H]5CCCN5C(=O)[C@H](NC(=O)N5CC[C@@H](O)C5)c5ccccc5)[nH]4)cc3)cc2)[nH]1)c1ccccc1 [Compound 268] | > 9.00
COC(=O)N[C@@H](C(=O)N1CCC[C@H]1c1ncc(-c2ccc(C#Cc3ccc(-c4cnc([C@@H]5CCCN5C(=O)[C@H](NC(=O)N5CC[C@H](O)C5)c5ccccc5)[nH]4)cc3)cc2)[nH]1)c1ccccc1 [Compound 269] | > 9.00
COC(=O)N[C@@H](C(=O)N1CCC[C@H]1c1ncc(-c2ccc(C#Cc3ccc(-c4cnc([C@@H]5CCCN5C(=O)[C@H](NC(=O)N5CC[C@H](F)C5)c5ccccc5)[nH]4)cc3)cc2)[nH]1)c1ccccc1 [Compound 270] | > 9.00
COC(=O)N[C@@H](C(=O)N1CCC[C@H]1c1ncc(-c2ccc(C#Cc3ccc(-c4cnc([C@@H]5CCCN5C(=O)[C@H](NC(=O)N5CC[C@@H](OC)C5)c5ccccc5)[nH]4)cc3)cc2)[nH]1)c1ccccc1 [Compound 271] | > 9.00
COC(=O)N[C@@H](C(=O)N1CCC[C@H]1c1ncc(-c2ccc(C#Cc3ccc(-c4cnc([C@@H]5CCCN5C(=O)[C@H](NC(=O)N5CC[C@H](OC)C5)c5ccccc5)[nH]4)cc3)cc2)[nH]1)c1ccccc1 [Compound 272] | > 9.00
COC(=O)N[C@@H](C(=O)N1CCC[C@H]1c1ncc(-c2ccc(C#Cc3ccc(-c4cnc([C@@H]5CCCN5C(=O)[C@H](NC(=O)N5CCC(C)(O)CC5)c5ccccc5)[nH]4)cc3)cc2)[nH]1)c1ccccc1 [Compound 273] | > 9.00
COC(=O)N[C@@H](C(=O)N(C)[C@@H](C)c1ncc(-c2ccc(C#Cc3ccc(-c4cnc([C@@H]5CCCN5C(=O)[C@H](NC(=O)OC)c5ccccc5)[nH]4)cc3)cc2)[nH]1)c1ccccc1 [Compound 274] | > 9.00
